# Patent US8093209B2, “Methods of suppressing microglial activation and systemic inflammatory responses” (Cognosci, Incorporated, priority 2002, dated 2012)
# What was measured:
# LDL receptor = LDL receptor (Homo sapiens, UniProt P01130); conditions: lipid-free peptide; cited from earlier work
# [1] = system: primary rat neuronal/glial cultures exposed to NMDA; assay: NMDA-induced 45Ca uptake by primary neuronal-glial cultures; type: cell-based; conditions: 10 μM MK-801 pretreatment, 100 μM NMDA
# Description: (§1) Primary neuronal-glial cultures were prepared from fetal Sprague-Dawley rat brains at 18 days of gestation as previously described (Pearlstein et al., 1998). Brains were harvested from 10-15 pups and dissected to separate cortex from meninges and subcortical structures using anatomical landmarks. Cortices were pooled and minced into 2 mm^3 pieces in a buffered salt solution supplemented with 20 mM HEPES buffer, pH 7.4, containing 0.25% trypsin. The tissue was incubated for 20 minutes at 37° C. in a 5% CO2/95% room air atmosphere, and washed twice with ice-cold, glutamine-free minimum essential medium (MEM; Life Technologies) containing 15 mM glucose, 5% fetal bovine serum (GIBCO), 5% horse serum (GIBCO), and 1% DNase-I (Sigma Chemical Co., St. Louis, Mo., USA). Tissue pieces were dissociated by trituration through a fire-polished 9-inch Pasteur pipette (I.D.=0.7 mm). The resultant suspension was centrifuged at 50×g for 10 min, the supernatant discarded, and the pellet resuspended in growth medium (MEM supplemented with 15 mM glucose, 5% fetal bovine serum, and 5% horse serum). The dissociated cells were plated to achieve a confluent monolayer using 4×10^5 cells per well in poly-D-lysine coated, 24-well culture plates (Falcon 3047; Becton Dickinson Co., Lincoln Park, N.J., USA). Cultures were maintained undisturbed at 37° C. in a humidified 5% CO2/95% room air atmosphere for 13-16 days prior to use.
# Cellular calcium uptake from the extracellular space was assessed using ^45CaCl2 (American Radiolabeled Chemicals, St. Louis, Mo.). After washing the cultures with Mg^2+-free BSS containing 20 mM HEPES buffer, 6 μM peptide or 10 μM MK-801 was added to each well prior to and removed at the end of 100 μM NMDA exposure. ^45Ca (0.28 μCi/ml, 0.9 μCi/well) was added to each well immediately prior to NMDA exposure. The cultures were returned to the incubator and maintained at 37° C. Twenty minutes later, the exposure medium was removed and each well was washed 3 times with ice-cold Mg^2+-free BSS containing 20 mM HEPES buffer. The cells were subsequently lysed by addition of 0.2% sodium dodecyl sulfate (SDS). An aliquot from each well was added to a liquid scintillation vial containing 10 ml Cytoscint™ (ICN, Biochemical Research Product, CA) and radioactivity was determined by scintillation counting and normalized to cell count.
# [2] = system: thioglycollate-elicited peritoneal macrophages; assay: [Ca2+]i in Fura-2/AM treated single macrophages, digital imaging microscopy (Example 10); type: cell-based, mouse; conditions: 1000-fold molar excess RAP, 10 mM NiCl2, or 1 μg/ml pertussis toxin 12 h
# Description: (§2) Macrophage Harvesting. All experiments involving animals were first approved by the Duke Institutional Animal Care and Use Committee. Pathogen-free female C57BL/6 mice and ApoE deficient mice previously backcrossed 10 times to the C57BL/6 strain were obtained from the Jackson Laboratory (Bar Harbor, Me.). Thioglycollate-elicited peritoneal macrophages were harvested by peritoneal lavage using 10 ml of ice-cold Hanks' balanced salt solution containing 10 mM HEPES and 3.5 mM NaHCO3 (HHBSS), pH 7.4. The macrophages were pelleted by centrifugation at 4° C. at ˜800×g for 10 min and resuspended in RPMI 1640 media supplemented with 25 mM HEPES, 12.5 U/ml penicillin, 6.5 mg/ml streptomycin, and 5% fetal bovine serum.
# Measurement of [Ca^2+]i in apoE and peptide treated macrophage. Changes in [Ca^2+]i levels in Fura-2/AM treated single cells were quantified using digital imaging microscopy in accordance with known techniques. Macrophages were plated on glass coverslips sitting in 35 mm Petri dishes at a density of 1.5×10^5 cells/cm^2, and allowed to adhere for 2 h in a humidified 5% CO2 incubator at 37° C. The non-adherent cells were aspirated and the monolayers were washed twice with HHBSS. 4 μM Fura-2/AM was incubated with the cells for thirty min in the dark at room temperature and [Ca^2+]i was subsequently measured using a digital imaging microscope in accordance with known techniques. […] To determine if signaling resulted from ligation of the ligand to LRP, cells were preincubated with a 1000-fold molar excess of RAP or 10 mM NiCl2, both of which inhibit ligand binding to LRP, for 5 min prior to stimulation with apoE or peptide. In experiments in which the involvement of a G protein was assessed, monolayers were incubated with 1 μg/ml pertussis toxin for 12 h at 37° C. and Ca^2+ measurements were made as stated above.
# [3] = system: primary rat neuronal/glial cultures exposed to NMDA; assay: NMDA-induced LDH release in primary neuronal-glial cultures; type: cell-based; conditions: 6 μM peptide, 100 μM NMDA
# Description: as §1
# Mature cultures (13-16 days in vitro) were washed with Mg^2+-free buffered salt solution (BSS) containing 20 mM HEPES buffer (pH7.4) and 1.8 mM CaCl2, prior to the addition of NMDA. Following NMDA exposure, cultures were maintained for 30 minutes at 37° C. in a 5% CO2/95% air atmosphere. The medium containing NMDA was then removed and replaced with MEM supplemented with 20 mM glucose. The cultures were returned to the incubator for 24 h. In all experiments, cellular damage was assessed at 24 h after exposure to NMDA by measurement of the activity of lactate dehydrogenase (LDH) released into the medium as described below. The non-competitive NMDA receptor antagonist, MK-801 (Tocris Cookson Ins., St. Louis, Mo.) at a concentration of 10 μM was used as a positive control. Preliminary dose-response studies were performed to determine the concentration of NMDA (100 μM) required to effect a near-maximal LDH release (ED90) as used in the present study.
# The effect of human recombinant apoE (Panverra, Madison, Wis.) on 100 μM NMDA-induced LDH release was assessed and the dose-response curve was obtained (apoE: 0.1-10 μM final concentration). ApoE3, the most common human isoform, was added to the cultures 30 minutes prior to and removed following NMDA exposure. The effect of apoE peptide (133-149) on NMDA (100 μM or 300 μM)-induced LDH release was next assessed and the dose-response curve was obtained in a separate set of sister cultures that were simultaneously treated under one of the following conditions: (1) various doses of peptide (0.3 μM, 1 μM, 3 μM, 6 μM, 10 μM final concentration) were added to the culture immediately prior to and removed at the end of NMDA exposure; (2) no peptide, NMDA exposure; (3) no peptide, no NMDA exposure; (4) no peptide, NMDA exposure with 10 μM MK-801 for 30 minutes. The effect of a scrambled control peptide on NMDA-induced LDH release was similarly assessed.
# The effect of time of administration of apoE peptide (133-149) on NMDA-induced LDH release was assessed in a separate set of sister cultures that were simultaneously treated under one of following conditions: (1) peptide was added to the culture medium 24 h prior to and removed immediately before exposure to NMDA; (2) peptide was added immediately prior to and removed at the end of the NMDA exposure; (3) peptide was added immediately following the 30 minutes NMDA exposure; (4) no peptide, NMDA exposure; (5) no peptide, no NMDA exposure. […]
# [4] = system: enriched microglia primary cultures from apoE deficient mouse pups; assay: LPS-stimulated nitric oxide (nitrite) secretion by enriched microglia primary cultures; type: cell-based; conditions: peptide dose of 2 mM, LPS 100 ng/ml
# Description: Culture preparation and characterization: Mixed glial cell cultures were prepared from: (a) wildtype (C57B16; Jackson Laboratories) mouse pups; (b) ApoE deficient mutant mouse pups (ApoE-deficient mice), and (c) transgenic mouse pups expressing human ApoE3 but not murine ApoE (ApoE3 mice). See Xu et al., Neurobiol. Dis. 3:229 (1996) regarding the creation and characterization of the transgenic mice. Mixed glial cell cultures were prepared as has been described. See McMillian et al., Neurochem. 58:1308 (1992); Laskowitz et al., J. Neuroimmunol. 76:70 (1997). Briefly, brains were removed from 2-4 day old pups, cleaned of membranes and blood vessels, mechanically dispersed in Ca^+2-free media, and collected by centrifugation. Cells were then plated in DMEM/F12 (containing 10% fetal calf serum, 1% penicillin/streptomycin, Gibco #15070), one brain per 25 cm flask. […]
# Nitrite Quantification The production of NO was assessed by measuring the accumulation of nitrite, which was quantified using a calorimetric reaction with Griess reagent (0.1% N-1-naphthylethylenediamine dihydrochloride, 1% sulfanilamide, and 2.5% H3PO4). Absorbance was measured at 570 nm by spectrophotometry. […]
# Enriched microglia primary cultures were prepared from the brains of apoE deficient mouse pups as described in Example 1, above. […] Nitric oxide production was assessed as described in Example 1. […]
# [5] = system: thioglycollate-elicited peritoneal macrophages; assay: IP3 formation in myo-[2-3H]inositol-labeled macrophages (Example 10); type: cell-based, mouse; conditions: pertussis toxin pretreatment
# Description: as §2, with “serum. Cell viability was determined by the trypan blue exclusion method and was consistently greater then 95%.” for “serum.”
# Measurement of IP3 in apoE treated macrophage and effect of pertussis toxin. The formation of IP3 in myo-[2-^3H]inositol-labeled macrophages under various experimental conditions was quantified in accordance with known techniques. Macrophage were plated in 6 well plates (4×10^6 cells/well) and allowed to adhere at 37° C. for 2 h in a humidified 5% CO2 incubator. Medium was aspirated from the monolayers and RPMI 1640 medium containing 0.25% BSA and myo-[2-^3H]inositol (specific activity 10-20 Ci/mmol) was added to each well. […] Radioactivity was determined by placing aliquots in a liquid scintillation counter to determine radioactivity. […] The effect on IP3 formation was measured as described above.
# LDL receptor, sequence (P01130 22-860, species assumed): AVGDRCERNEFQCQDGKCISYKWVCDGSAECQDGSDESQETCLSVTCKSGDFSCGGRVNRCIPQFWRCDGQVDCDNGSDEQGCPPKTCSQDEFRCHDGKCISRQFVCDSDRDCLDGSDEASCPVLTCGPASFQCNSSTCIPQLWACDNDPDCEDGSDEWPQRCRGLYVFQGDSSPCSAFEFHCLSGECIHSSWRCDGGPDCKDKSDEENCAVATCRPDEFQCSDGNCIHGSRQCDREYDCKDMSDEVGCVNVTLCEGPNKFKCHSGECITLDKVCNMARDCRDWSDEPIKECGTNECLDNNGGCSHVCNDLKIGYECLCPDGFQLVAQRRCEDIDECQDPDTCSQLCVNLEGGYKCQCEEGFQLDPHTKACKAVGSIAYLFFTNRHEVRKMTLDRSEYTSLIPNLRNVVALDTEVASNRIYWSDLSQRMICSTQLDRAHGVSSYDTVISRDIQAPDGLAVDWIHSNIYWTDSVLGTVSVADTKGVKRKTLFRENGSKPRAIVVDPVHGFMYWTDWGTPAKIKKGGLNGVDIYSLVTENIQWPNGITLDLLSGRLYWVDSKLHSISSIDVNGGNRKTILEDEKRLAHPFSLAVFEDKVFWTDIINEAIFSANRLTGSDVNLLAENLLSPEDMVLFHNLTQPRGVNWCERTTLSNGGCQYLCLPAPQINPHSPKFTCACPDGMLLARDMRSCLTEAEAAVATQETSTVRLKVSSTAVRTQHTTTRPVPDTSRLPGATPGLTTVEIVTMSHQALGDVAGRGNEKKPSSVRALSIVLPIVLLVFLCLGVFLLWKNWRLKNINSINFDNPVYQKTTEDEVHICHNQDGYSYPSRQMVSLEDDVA
compound,measurement,setting,value
141-155 dimer: dimeric peptide of ApoE residues 141-155 (Dyer et al.),LDL receptor binding,LDL receptor,~1 % of LDL activity
"141-155 monomer: lipid-free synthetic peptide comprising residues 141-155 of ApoE (Dyer et al.) (LRKLRKRLLRDADDL; UniProt P02649 159-173, looked up, fragment)",LDL receptor binding activity,LDL receptor,No binding activity was observed
"C[C@]12N[C@H](Cc3ccccc31)c1ccccc12 [MK-801, reference compound]",NMDA-induced calcium influx,[1],completely reversed
"[Cl][Ni][Cl] [Ni^+2, NiCl2, reference compound]",effect of preincubation on apoE-induced [Ca2+]i increase,[2],markedly attenuated the [Ca^2+]i increases
"ApoE (136-149): 14 amino acid peptide, three amino-terminal residues removed from ApoE (133-149) (Ac-RLASHLRKLRKRLL-NH2; listed as Homo sapiens)","protection against NMDA-induced cell damage, truncated peptides",[3],modest protection against NMDA toxicity
"ApoE (139-149): 11-residue peptide, six amino-terminal residues removed from ApoE (133-149) (Ac-SHLRKLRKRLL-NH2; listed as Homo sapiens)","protection against NMDA-induced cell damage, truncated peptides",[3],no detectable bioactivity
"LRKLRKRLL (fragment of ApoE containing LDL receptor binding site) [SEQ ID NO:2, 9-mer monomer, ApoE positions 141-149, used as control]",nitric oxide secretion by activated microglia,[4],did not result in any apparent decrease in nitric oxide secretion
pertussis toxin [reference compound],effect of pretreatment on apoE-induced IP3 increase,[5],completely abolished this increase in IP3
same,effect of preincubation on apoE-induced [Ca2+]i increase,[2],markedly attenuated the ApoE-dependent Ca^2+ response
